Drawing on PubChem BioAssay (NCI), this text covers TGI and GI50 for nine molecules.

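Briefly, cells in 96-well plates were exposed to five compound concentrations for 48 h, and endpoints were estimated by linear interpolation. Abbreviation: GI50, concentration required for 50% inhibition of growth. At the TGI there is no net growth.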

Holding throughout (test): NCI-60 cell line screen, 48 h
The test system of assay [1] is RPMI-8226 leukemia.
The test system of assay [2] is CCRF-CEM leukemia.
The test system of assay [3] is SR leukemia.
The test system of assay [4] is ACHN renal.
Assay [5] concerns SK-MEL-5 melanoma.
For assay [6], the system named is NCI/ADR-RES ovarian.
Assay [7] has as its system COLO 205 colon.
Assay [8] deals with OVCAR-5 ovarian.
Assay [9] concerns HL-60(TB) leukemia.
For assay [10], the system named is SK-OV-3 ovarian.

As to `O=C1C(=C(C(F)(F)Cl)C(F)(F)Cl)C2CCC1C2` (stereo not drawn), the TGI in [1] was more than 3.16 µM; in [2], more than 10 µM; in assay [3], more than 3.34 µM; in assay [4], 3.32 µM; in [5], 3.11 µM; in assay [6], 5.18 µM. In addition, the TGI in assay [7] is 3.25 µM; in assay [8], more than 10 µM; in assay [9], more than 3.16 µM; in assay [10], more than 10 µM.
With `O=C1CSC(=S)N1c1ccco1`, the TGI in [1], in assay [2], in [3], in assay [4], in assay [5] and in [6] was more than 100 µM each time. Also, the TGI in [7], in [8], in [9] and in assay [10] was more than 100 µM throughout.
`Cc1ccc2oc(=O)cc(/C(=C3/C=CC=N3)c3ccc[nH]3)c2c1`: the GI50 in assay [1] was 0.297 µM; in assay [2], 0.29 µM; in assay [3], 0.34 µM; in [4], 0.694 µM; in assay [5], 0.356 µM; in assay [6] it was 0.314 µM. The GI50 in [7] was 1.49 µM; in assay [8] it was 0.901 µM; in [9], 0.271 µM; in [10] it was 0.264 µM. Further, the TGI in assay [1] came out at 1.16 µM; in assay [2], 4.01 µM; in [3], 1.46 µM; in assay [4], 8.56 µM; in assay [5], 1.29 µM; in assay [6] it was 3.77 µM. In addition, the TGI turned out to be 3.49 µM in [7], 12.7 µM in [8], 0.717 µM in [9] and 0.815 µM in assay [10].
Regarding `CC(=O)O[C@H]([C@H](OC(C)=O)[C@H](C)OC(C)=O)[C@@H](/C=C/[C@@H]1CC=CC(=O)O1)OC(C)=O`, the GI50 in [1] was 29.7 µM; in [2], 41.5 µM; in [3], 77.5 µM; in assay [4], more than 100 µM; in assay [5], 44.5 µM; in [6], more than 100 µM. The GI50 was 33.5 µM in assay [7], more than 100 µM in assay [8], more than 100 µM in assay [9] and more than 100 µM in assay [10]. For the same molecule, the TGI is 99.5 µM in assay [1]; more than 100 µM in assay [2]; more than 100 µM in assay [3]; more than 100 µM in assay [4]; more than 100 µM in [5]; more than 100 µM in [6]. In addition, the TGI in assay [7], in assay [8], in assay [9] and in [10] was more than 100 µM throughout.
Take `COc1cc(Oc2c(C)c(Cl)c(OC)c(Cl)c2OC)c2c(c1Cl)COC2=O`: the TGI is 13.1 µM in assay [1]; more than 100 µM in assay [2]; 83.5 µM in assay [3]; 62.9 µM in assay [4]; 49.2 µM in assay [5]; more than 100 µM in [6]. Moreover, the TGI is more than 100 µM in assay [7], more than 100 µM in assay [8], 31.6 µM in assay [9] and more than 100 µM in assay [10].
In the case of `Cc1c2ccn(O)cc2c(C)c2c1nc1ccccc12`, the TGI is more than 100 µM in assay [1]; more than 60.1 µM in [2]; 15.2 µM in assay [3]; more than 85.7 µM in [4]; more than 100 µM in [5]; more than 100 µM in [6]. For the same molecule, the TGI in assay [7] is more than 100 µM; in assay [8], 53.5 µM; in assay [9] it was 38.3 µM; in [10] it was 39.6 µM.
As to `CN(C)CCCN(CCC1CCCCC1)CCC1CCCCC1`, the GI50 in [1] is 0.424 µM; in [2], 1.72 µM; in assay [3], 0.731 µM; in assay [4], 4.14 µM; in [5], 0.545 µM; in assay [6] it was 0.683 µM. The GI50 in assay [7] was 1.48 µM; in assay [8] it was 2.7 µM; in [9], 2.09 µM; in assay [10] it was 7.68 µM. Further, the TGI in assay [1] came out at 3.86 µM; in assay [2], 6.38 µM; in assay [3], 3.25 µM; in assay [4], 14.4 µM; in assay [5], 2.14 µM; in assay [6], 7 µM. Moreover, the TGI in assay [7] was found to be 3.36 µM; in assay [8] it was 7.97 µM; in [9], 9.88 µM; in assay [10], 21.5 µM.
As to `COc1ccc(C=Nc2c(C(=O)Nc3cccc(Cl)c3C)sc3nc(C)c(C(=O)/C=C/c4ccc(OC)cc4)cc23)cc1`, the GI50 was 1.5 µM in [1]; 0.819 µM in [2]; 0.421 µM in [3]; 0.425 µM in [4]; 0.856 µM in [5]; 0.197 µM in [6]. Also, the GI50 in assay [7] is 1.82 µM; in [8], 2.04 µM; in assay [9] it was 1.27 µM; in assay [10], 0.958 µM. Further, the TGI in assay [1] is more than 50 µM; in assay [2], more than 50 µM; in assay [3], more than 50 µM; in [4], more than 50 µM; in assay [5], more than 50 µM; in assay [6], 1.17 µM. Further, the TGI was 23.8 µM in [7], more than 50 µM in [8], more than 22 µM in assay [9] and more than 50 µM in assay [10].
For the molecule `COc1cc2c(c(OC)c1OC)-c1ccc(O)cc1[C@@H](NC(C)=O)CC2`, the GI50 in assay [1] was 0.0312 µM; in assay [2] it was 0.0318 µM; in assay [3], 0.0265 µM; in [4] it was 0.166 µM; in assay [5], 0.0412 µM; in assay [6], 0.533 µM. The GI50 was 0.0319 µM in assay [7], 0.215 µM in assay [8], 0.0227 µM in assay [9] and 0.0377 µM in assay [10]. For the same molecule, the TGI in assay [2] was 1.62 µM; in assay [4] it was more than 100 µM; in assay [5], 0.195 µM; in assay [6], 6.78 µM; in [7], 0.0859 µM; in assay [8], more than 100 µM. Moreover, the TGI is 0.0645 µM in [9] and more than 100 µM in [10].
